Laboratory results taken from patent publication US12534514B2, “Biological and synthetic molecules inhibiting respiratory syncytial virus infection” (Fraunhofer-Gesellschaft zur Förderung der angewandten …, priority 2019, dated 2026).
Square brackets hold non-standard residues; d marks the D form. Tyr(3,5-I2) = N[C@@H](Cc1cc(I)c(O)c(I)c1)C(=O)O; Chg = N[C@H](C(=O)O)C1CCCCC1; Cpa = not defined here

Experiments:
active RSV = assay: ELISA binding of DNA-peptide construct to RSV; conditions: peptides coupled to DNA; FIG. 6B
Excerpt: FIG. 6: Binding of novel DNA-Peptide construct to RSV. […] The single compounds are not in a representative scale. TMB=3,3′,5,5′-Tetramethylbenzidine, HRP=Horseradish peroxidase. […] “Only Anti-RSV antibody” and “Anti-RSV antibody+RSV” represent internal ELISA controls and lack components described in FIG. 6A. The other three samples have all components described in FIG. 6A. Each bar results from the mean values of triplicates±SD.
Binding of newly developed peptides 6 (Ac-[Chg][Cpa]VSTT[Tyr3,5-I2]LPHYFDN-NH2) and 12 (Ac-[Chg][Nle][Chg]STTYLPHYFDN-NH2) to active RSV was verified by enzyme-linked immunosorbent assay (FIG. 6).
FIG. 6A illustrates the scheme of the used ELISA. It has to be noted that the single compounds are not in a representative scale. […] Unspecific binding of RSV and/or RSV-antibody to neutravidin was excluded by using the two other controls.

[1] = test system: RSV (ATCC VR-26—Long strain); assay: RSV plaque reduction assay on human epithelial cells (HEp-2); assay type: cell-based
Experimental: FIG. 1: Scheme of the used inhibition experiments. RSV-plaque reduction assay on human epithelial cells (HEp-2). HEp-2 cells were seeded in 96-well plate 24 h prior to infection (left). Next day, cells were infected with RSV (middle, white arrow). Simultaneously, peptides at concentrations of 20 μM were added to the cells (middle, black arrow). The inhibitory activity was determined 48 post infection by counting viral plaques after immunocytochemical staining using RSV-specific monoclonal antibody (right, black-checked arrow).
The designed peptides were synthesized and screened for their inhibitory activity against RSV in a cell culture-based plaque reduction assay as illustrated in FIG. 1. In detail, Anti-RSV activity was assessed in plaque reduction assay as follows: HEp-2 cells were seeded in a 96-well plate 24 h prior to infection. […] The inhibitory activity was determined 48 h post infection by counting viral plaques after immunocytochemical staining using RSV-specific monoclonal antibody.
Anti-RSV activity was assessed in plaque reduction assay. […] The inhibitory activity was determined 48 h post infection by counting viral plaques after immunocytochemical staining using RSV-specific antibody.
In detail, anti-RSV activity was assessed in plaque reduction assay. […] Viral plaques were counted after immunocytochemical staining using RSV-specific antibody at 48 h after infection. […]

| Substance | binding to active RSV (ELISA) (active RSV) | inhibition of infection with RSV on human epithelial cells ([1]; concentration of 20 μM, RSV Long, 48 h post infection, FIG. 3B) [%] | inhibition of infection with RSV on human epithelial cells (screen of truncated peptides, FIG. 2) ([1]; peptides at 20 μM added simultaneously with RSV, plaques counted 48 h post infection) |
| --- | --- | --- | --- |
| Ac-[Chg][Cpa]VSTT[Tyr3,5-I2]LPHYFDN-NH2 (Ac-[Chg][Cpa]VSTT[Tyr(3,5-I2)]LPHYFDN-NH2; reading uncertain; also: printed as Ac-[Chg][Cpa]VSTT[Tyr3,5-I2]LPHYFDN-NH2) [peptide 6] | verified |  |  |
| Ac-[Chg][Nle][Chg]STTYLPHYFDN-NH2 (XXXSTTYLPHYFDN; HELM PEPTIDE1{[ac].[O=C([C@@H](N[*:1])C1CCCCC1)[*:2]].[Nle].[O=C([C@@H](N[*:1])C1CCCCC1)[*:2]].S.T.T.Y.L.P.H.Y.F.D.N.[am]}$$$$V2.0; SMILES CCCC[C@H](NC(=O)[C@@H](NC(C)=O)C1CCCCC1)C(=O)N[C@H](C(=O)N[C@@H](CO)C(=O)N[C@H](C(=O)N[C@H](C(=O)N[C@@H](Cc1ccc(O)cc1)C(=O)N[C@@H](CC(C)C)C(=O)N1CCC[C@H]1C(=O)N[C@@H](Cc1c[nH]cn1)C(=O)N[C@@H](Cc1ccc(O)cc1)C(=O)N[C@@H](Cc1ccccc1)C(=O)N[C@@H](CC(=O)O)C(=O)N[C@@H](CC(N)=O)C(N)=O)[C@@H](C)O)[C@@H](C)O)C1CCCCC1) [peptide 12] | verified |  |  |
| LVVSTTYLPHYFDN (Ac-LVVSTTYLPHYFDN-NH2) |  | > 50 | able to inhibit infection with RSV |
